# Test results: patent EP3431468B1, “USE OF ADIPONECTIN RECEPTOR AGONISTS IN TREATING DEPRESSION, ANXIETY AND NEUROINFLAMMATION” (CENTRE NATIONAL DE LA RECHERCHE SCIENTIFIQUE, priority 2017, dated 2019)
# Legend:
# Format in all cases: in vivo
# wt mice = test: Open-field test (OF), locomotor activity; details: chronic ip 1mg/kg for twenty consecutive days, 10 minutes recording
# Experimental: All behavioral testing were conducted during the light phase (between 09:00 and 14:00 am) in compliance with the Institutional Animal Care and Use Committee of the University of Nice-Sophia Antipolis (permission number 010344.01 from the French "Ministère de l'Enseignement Supérieur et de la Recherche" granted to Dr. Joëlle Chabry). • Forced Swimming test (FST) - Mice were placed an inescapable transparent tank (20cm diameter, 30cm deep) filled with water (23°C ± 0.5) for six minutes as previously described by Porsolt et al. (1977). The immobility duration, as an index of the resignation, was timed during the last four minutes of the test. A mouse was considered immobile when it remained floating with only slight movements to keep its head out of the water. • Open-field test (OF) - Locomotor activity was determined using open-field (OF) activity. […] Twenty-four hours later, the latency to fall, an index of the motor coordination, was recorded on accelerating rod (from 10 to 40 rpm/min). • Light & Dark test (L&D) - The L&D place preference test was used to assess the anxiety-like behavior. […] To initiate testing, mice were placed into the light side and activity was recorded for 5 minutes. […] The amount of water and 1% sucrose solution was measured twenty-four hours later. […]
# [1] = Kinetic of AdipoRon in plasma and brain areas by HPLC coupled to MS/MS; details: for time of highest level of AdipoRon post ip injection: 1mg/kg ip; for level of AdipoRon: 3-hours post ip injection, 1mg/kg
# Kyn pathway = test: Kynurenine pathway metabolites measurement in plasma; details: long-term corticosterone-treated mice, chronic AdipoRon treatment
# Experimental: Data were digitized at 5-10 kHz using a Digidata interface coupled to a microcomputer running pClamp 9 (Axon Instruments, USA). Current-clamp data were digitized at 0.5 kHz using the same interface. Potentials were digitally filtered at 1-3 kHz. Average data were expressed as mean ± SEM, n = number of neurons, N = number of mice. • Western blot analysis - Total proteins were extracted from mouse hypothalamus by homogenization in lysis buffer (50mM Tris-HCl, pH7.5, 150mM NaCl, 5mM EDTA containing 0.5% Triton X-100 and 0.5% sodium deoxycholate with a coktail of protease and phosphatase inhibitors). Equal amounts of total proteins (50µg) determined by the Bradford method (BioRad) were separated onto 12% SDS-PAGE, then transferred on nitrocellulose membrane (Schleicher & Schuell, Dassel, Germany). […] IFNγ, IL1β, IL6, and TNFα, levels were measured using an electro-chemo-luminescence (ECL)-based assay (U-plex, MesoScaleDiscovery) following manufacturer instructions. Results were standardized according to the protein concentration of each sample determined by the Bradford method. • Kynurenine pathway metabolites measurement - Plasma levels of L-kynurenin (L-Kyn), tryptophan (Trp), kynurenin acid (Kyn ac), 5-HT and 5-HIAA were determined as follows: 25µl of plasma was deproteinated with 150µl of cold MeOH. […]
smiles,measurement,setting,value
"O=C(COc1ccc(C(=O)c2ccccc2)cc1)NC1CCN(Cc2ccccc2)CC1 [AdipoRon, 2-(4-Benzoylphenoxy)-N-[1-(phenylmethyl)-4-piperidinyl]-acetamide]",mean speed in the OF test,wt mice,did not significantly modify
same,total distance traveled in the OF test,wt mice,did not significantly modify
same,time of highest level of AdipoRon post ip injection,[1]; hippocampus,thirty
same,level of AdipoRon,[1]; hippocampus,barely detectable
same,time of highest level of AdipoRon post ip injection,[1]; hypothalamus,thirty
same,level of AdipoRon,[1]; hypothalamus,barely detectable
same,blood-brain barrier (BBB) crossing,"[1]; ip injection, mice",crosses the BBB
same,time of highest level of AdipoRon post ip injection,[1]; plasma,thirty
same,level of AdipoRon,[1]; plasma,barely detectable
same,Kyn ac:L-Kyn ratio,Kyn pathway,restoring the physiological
same,L-Kyn:Trp ratio,Kyn pathway,restoring the physiological
